The record followed here is ChEMBL document CHEMBL1201862, “PubChem BioAssay data set” (2004).

Some test systems named below: PC-3; CCRF-CEM; HCC 2998; COLO 205; A549; HOP-62; EKVX; SK-OV-3; RPMI-8226; MCF7; ACHN; SW-620; NCI-H460; SN12C; NCI-H226; IGROV-1; Hs-578T; RXF 393; T47D; SF-539.
What all share (experiment): NCI anticancer screen, dose series, 48 h

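Step 1: Grow cells in 96-well plates. Step 2: Expose to compound for 48 hours at 5 concentrations. Step 3: Interpolate endpoints linearly; if unreached, use highest concentration. GI50: concentration for 50% inhibition of growth.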 Activity calls are given as the source filed them. No stated cut-off is given here; in the data, active = GI50 up to about 1.1 µM and inactive = higher.

Take `CC(=O)C(C(c1ccccc1)N1CCOCC1)N1CCOCC1` (stereo not given): the GI50 in the test with PC-3 is > 100 µM (inactive); with CCRF-CEM, 16.9 µM (inactive); in the test on HCC 2998, 20.3 µM (inactive); in the test with COLO 205 it was > 100 µM (inactive); in the test on A549 it was > 100 µM (inactive); with HOP-62, > 100 µM (inactive). Moreover, the GI50 in the test on EKVX, in the test on SK-OV-3, in the test with RPMI-8226, with MCF7, with ACHN and in the test with SW-620 was > 100 µM (inactive) each time. The GI50 with NCI-H460 was 19.2 µM (inactive); in the test with SN12C it was > 100 µM (inactive); with NCI-H226, > 100 µM (inactive); in the test on IGROV-1, > 100 µM (inactive); with Hs-578T it was > 100 µM (inactive); in the test with RXF 393, > 100 µM (inactive). The GI50 in the test with T47D and in the test on SF-539 was > 100 µM (inactive) in each case.
In the case of `CCC(C)C1NC(=O)C(NC(=O)c2c3nc4c(C(=O)NC5C(=O)NC(C(C)CC)C(=O)N6CCCC6C(=O)N(C)CC(=O)N(C)C(C(C)C)C(=O)OC5C)ccc(C)c4oc-3c(C)c(=O)c2O)C(C)OC(=O)C(C(C)C)N(C)C(=O)CN(C)C(=O)C2CCCN2C1=O` (stereo not given), the GI50 in the test on PC-3 was 3.99 µM (inactive); with CCRF-CEM, 0.499 µM (active); in the test with HCC 2998, 3.16 µM (inactive); with COLO 205, 1.35 µM (inactive); in the test with A549, 2.47 µM (inactive); in the test on HOP-62, 2.99 µM (inactive). Also, the GI50 in the test with EKVX is 14.2 µM (inactive); in the test with SK-OV-3, 11.5 µM (inactive); in the test on RPMI-8226, 0.902 µM (active); in the test with MCF7, 1.11 µM (active); in the test on ACHN, 4.89 µM (inactive); with SW-620 it was 1.09 µM (active). In addition, the GI50 with NCI-H460 is 0.174 µM (active); in the test on SN12C it was 1.17 µM (inactive); in the test on NCI-H226, 0.881 µM (active); in the test on IGROV-1, 0.239 µM (active); in the test on Hs-578T it was 4.49 µM (inactive); with RXF 393, 2.54 µM (inactive). In addition, the results for the GI50 with T47D and in the test on SF-539 were 2.84 µM (inactive) and 0.838 µM (active), respectively.
As for `C/C=C/C(CC(O)(C(F)(F)F)C(F)(F)F)=N/NC(N)=S`, the GI50 with PC-3, in the test with CCRF-CEM, with HCC 2998, with COLO 205, in the test on A549 and in the test on HOP-62 was > 10 µM (inactive) in each case. Also, the GI50 in the test on EKVX, with SK-OV-3, in the test with RPMI-8226, with MCF7, with ACHN and in the test on SW-620 was > 10 µM (inactive) in each case. The GI50 in the test on NCI-H460, in the test with SN12C, in the test on NCI-H226, with IGROV-1, in the test with Hs-578T and in the test on RXF 393 was > 10 µM (inactive) throughout. Besides, the GI50 in the test on T47D and in the test with SF-539 was > 10 µM (inactive) throughout.
With `CC(C)(C)C(=O)C(C(=O)C(C)(C)C)C(=O)C(C)(C)C`, the GI50 in the test on PC-3, in the test on CCRF-CEM, in the test with HCC 2998, with COLO 205, with A549 and in the test on HOP-62 was > 100 µM (inactive) in each case. Further, the GI50 in the test on EKVX is > 100 µM (inactive); in the test with SK-OV-3, 43.5 µM (inactive); in the test with RPMI-8226 it was > 100 µM (inactive); in the test with MCF7 it was > 100 µM (inactive); in the test on ACHN it was > 100 µM (inactive); in the test with SW-620 it was > 100 µM (inactive). The GI50 in the test on NCI-H460, with SN12C, in the test with NCI-H226, in the test with IGROV-1, in the test with Hs-578T and with RXF 393 was > 100 µM (inactive) each time. For the same compound, the GI50 in the test with T47D and in the test on SF-539 was > 100 µM (inactive) throughout.
Regarding `C=C(C)[C@@H](O)[C@H](O)C[C@H](C)C1CC[C@]2(C)C1=CC[C@@H]1[C@@]3(C)CC[C@@H](OC(C)=O)C(C)(C)[C@@H]3C[C@@H](OC3OC(COC(C)=O)C(O)C(O)C3O)[C@]12C` (stereo not given in full), the GI50 in the test with PC-3 is 2.31 µM (inactive); with CCRF-CEM it was 2.29 µM (inactive); with HCC 2998, 0.354 µM (active); in the test with COLO 205, 1.93 µM (inactive); in the test on A549, 3.48 µM (inactive); with HOP-62 it was 2.99 µM (inactive). For the same compound, the GI50 was 3.03 µM (inactive) with EKVX; 3.48 µM (inactive) in the test with SK-OV-3; 2.01 µM (inactive) in the test on RPMI-8226; 2.96 µM (inactive) in the test on MCF7; 2.44 µM (inactive) in the test on ACHN; 3.34 µM (inactive) in the test with SW-620. For the same compound, the GI50 in the test on NCI-H460 was 2.45 µM (inactive); in the test with SN12C, 3.21 µM (inactive); with NCI-H226 it was 3.05 µM (inactive); with IGROV-1, 2.4 µM (inactive); with Hs-578T it was 2.81 µM (inactive); in the test with RXF 393, 1.98 µM (inactive). Moreover, the GI50 in the test with T47D was 2.48 µM (inactive); in the test on SF-539 it was 3.66 µM (inactive).
As for `Nc1ncc(Cl)c(NCC2(CO)CC(CCc3ccccc3)C2)n1` (stereo not given), the GI50 with PC-3 was > 100 µM (inactive); in the test on CCRF-CEM, > 67.8 µM (inactive); with HCC 2998, > 100 µM (inactive); with COLO 205, > 100 µM (inactive); in the test with A549 it was > 21.1 µM (inactive); in the test on HOP-62, > 100 µM (inactive). The GI50 in the test on EKVX is > 24.9 µM (inactive); in the test with SK-OV-3 it was > 100 µM (inactive); in the test with RPMI-8226, 2.79 µM (inactive); in the test with MCF7, 0.438 µM (active); with ACHN it was 34 µM (inactive); in the test on SW-620, > 100 µM (inactive). Moreover, the GI50 in the test with NCI-H460 was > 55 µM (inactive); in the test with SN12C it was > 100 µM (inactive); in the test with NCI-H226 it was > 100 µM (inactive); with IGROV-1, > 100 µM (inactive); in the test on Hs-578T it was > 100 µM (inactive); in the test on RXF 393 it was > 100 µM (inactive). The GI50 with T47D is 1.07 µM (active); with SF-539, > 100 µM (inactive).
For `CCOc1cc2c(cc1O)CC[C@@H]1[C@@H]2CC[C@]2(C)C(OS(=O)OC3CC[C@@H]4[C@H]5CCc6cc(O)c(OCC)cc6[C@@H]5CC[C@@]34C)CC[C@@H]12` (stereo not given in full), the GI50 in the test on PC-3 was 3.94 µM (inactive); in the test with CCRF-CEM it was 0.466 µM (active); with HCC 2998, 16 µM (inactive); in the test with COLO 205 it was 23.1 µM (inactive); with A549, 0.689 µM (active); in the test on HOP-62, 0.887 µM (active). The GI50 with EKVX is 3.21 µM (inactive); in the test on SK-OV-3, 1.16 µM (inactive); in the test with RPMI-8226, 1.63 µM (inactive); in the test with MCF7 it was 0.452 µM (active); in the test on ACHN, 1.88 µM (inactive); with SW-620, 0.355 µM (active). In addition, the GI50 with NCI-H460 was 0.581 µM (active); in the test on SN12C, 1.68 µM (inactive); in the test on NCI-H226, 2.49 µM (inactive); with IGROV-1 it was 4.52 µM (inactive); with Hs-578T, 3.25 µM (inactive); in the test with RXF 393, 1.29 µM (inactive). The GI50 was 5.66 µM (inactive) in the test on T47D and 0.48 µM (active) in the test on SF-539.
In the case of `CC(C)=CCN1CC(C)C(=O)Nc2cc(Cl)ccc21` (stereo not given), the GI50 in the test with PC-3 was 18.6 µM (inactive); in the test on CCRF-CEM, 29.4 µM (inactive); in the test on HCC 2998, 28.5 µM (inactive); in the test with COLO 205, 19.8 µM (inactive); in the test with A549, 30.2 µM (inactive); in the test with HOP-62 it was 26.6 µM (inactive). The GI50 in the test with EKVX was 26.2 µM (inactive); in the test with SK-OV-3, 24.8 µM (inactive); with RPMI-8226, 28.8 µM (inactive); in the test on MCF7, 18.7 µM (inactive); with ACHN, 25 µM (inactive); with SW-620 it was 26.7 µM (inactive). Also, the GI50 is 20.5 µM (inactive) with NCI-H460; 15.9 µM (inactive) in the test on SN12C; 15.7 µM (inactive) with NCI-H226; 24.3 µM (inactive) in the test on IGROV-1; 36.5 µM (inactive) in the test with Hs-578T; 28.4 µM (inactive) in the test with RXF 393. For the same compound, the results for the GI50 in the test with T47D and in the test on SF-539 were 24.9 µM (inactive) and 23.5 µM (inactive), respectively.
As for `C[C@@H](CC(O)C(O)C(C)(C)O)C1CCC23CC12CCC1[C@@]2(C)CCC(=O)C(C)(C)C2CC(OC2OC(CO)C(O)C(O)C2O)[C@]13C` (stereo not given in full), the GI50 in the test with PC-3, in the test on CCRF-CEM, in the test on HCC 2998, in the test with COLO 205, in the test with A549 and in the test on HOP-62 was > 10 µM (inactive) throughout. Besides, the GI50 with EKVX, in the test with SK-OV-3, with RPMI-8226, in the test with MCF7, with ACHN and in the test with SW-620 was > 10 µM (inactive) each time. Moreover, the GI50 in the test with NCI-H460, with SN12C, in the test on NCI-H226, with IGROV-1, in the test with Hs-578T and in the test with RXF 393 was > 10 µM (inactive) in each case. Moreover, the GI50 in the test on T47D and in the test on SF-539 was > 10 µM (inactive) throughout.
